Bridge positions count the residues as written; N and C are the ends. Ends that are not written are not given here.
Key:
rat ASIC3 = target: T1, rat ASIC3 (Rattus norvegicus, UniProt O35240); assay: two-electrode voltage clamp on rASIC3 expressed in X. laevis oocytes; type: cell-based
T1 construct: expressed in transfected cells; host or cells: Xenopus laevis oocytes (cRNA injection)
T1 sequence (O35240 1-533): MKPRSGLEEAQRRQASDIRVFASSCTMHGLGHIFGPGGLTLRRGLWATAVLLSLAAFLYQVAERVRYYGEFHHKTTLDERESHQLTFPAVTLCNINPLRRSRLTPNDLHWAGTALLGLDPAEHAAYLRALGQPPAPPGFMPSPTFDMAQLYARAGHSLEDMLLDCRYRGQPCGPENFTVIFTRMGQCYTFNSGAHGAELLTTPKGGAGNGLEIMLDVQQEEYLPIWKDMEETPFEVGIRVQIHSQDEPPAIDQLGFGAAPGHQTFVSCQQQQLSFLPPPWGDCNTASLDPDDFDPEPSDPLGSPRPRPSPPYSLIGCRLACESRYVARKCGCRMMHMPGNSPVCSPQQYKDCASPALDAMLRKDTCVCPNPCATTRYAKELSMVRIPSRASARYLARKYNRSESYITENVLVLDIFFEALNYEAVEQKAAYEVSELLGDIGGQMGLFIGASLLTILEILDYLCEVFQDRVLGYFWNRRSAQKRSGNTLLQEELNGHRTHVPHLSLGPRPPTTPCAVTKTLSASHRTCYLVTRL
Method: (§1) Rat ASIC1a and ASIC3 channels were expressed in X. laevis oocytes after injection of 2.5–10 ng of cRNA, as previously described. After injection oocytes were kept for 2–3 days at 19 °C and then up to 5 days at the temperature of 15–16 °C in sterile ND96 medium (96 mM NaCl, 2 mM KCl, 1.8 mM CaCl2, 1 mM MgCl2, 5 mM HEPES titrated to pH 7.4 with NaOH supplemented with 50 μg/mL of gentamycin). Two-electrode voltage clamp recordings were performed using GeneClamp 500 amplifier (Axon Instruments, Burlingame, CA, USA). The data were filtered at 50 Hz and digitized at 1000 Hz by an AD converter L780 (LCard, Moscow, Russia) using in-house software (Moscow). The solutions were applied to a cell chamber (volume 50 μL). The laminar flow of an external solution of ND96 (pH 7.4) was used at a rate of 1 mL/min. ASIC1a and ASIC3 were activated by a short (1 s) application of a solution with a pH 5.5 (10 mM MES) using a fast application system. Peptides were applied 15 s before the activation pulse in a solution containing 0.1% BSA. A value of currents inhibition was calculated as the ratio of the peak current amplitude, when the peptide was applied to the average amplitude of the control peak currents before and after the peptide application and expressed as a percentage. To construct the concentration-response curves, a logistic equation was the following: y = ((1 − A)/(1 + ([C]/IC50)^nH)) + A; where y is the relative value of current inhibition; C is the peptide concentration; IC50 is the half maximal inhibitory concentration; nH is the Hill coefficient; A is an amplitude of maximum inhibition (% of control).

rat ASIC1a = assay: two-electrode voltage clamp on rASIC1a expressed in X. laevis oocytes; type: cell-based; details: maximal applied concentration 100 μM; pH drop 7.4 to 5.5
Method: as §1, with “To construct the concentration-response curves, a logistic equation was the following: y = ((1 − A)/(1 + ([C]/IC50)^nH)) + A; where y is the relative value of current inhibition; C is the peptide concentration; IC50 is the half maximal inhibitory concentration; nH is the Hill coefficient; A is an amplitude of maximum inhibition (% of control).” left out

muscle α1β1δε nAChR = test system: muscle α1β1δε nAChR; parameters: method as in PMID 16571968; details: read-out: EC50 of ACh for α1β1δε; cited from earlier work

Row | Compound | IC50 (rat ASIC3) | maximal inhibitory effect on rASIC3 acid-induced current (rat ASIC3; 100 μM peptide, pH drop 7.4 to 5.5) | Hill coefficient nH, rASIC3 inhibition (rat ASIC3; logistic fit, n = 5) | Iminimal, rASIC3 concentration-response fit (rat ASIC3; logistic fit, n = 5, amplitude of maximum inhibition (% of control)) | inhibition of rASIC1a current (rat ASIC1a) | EC50 (muscle α1β1δε nAChR)
1 | GTPCKCLGYTGVYWFMITRCPNGHGYNLSCPYFLGVCCVKK (disulfide 4-37, 6-30, 20-38) [Hmg 1b-5] | 13.8 ± 0.6 µM | about 78% | 1.22 ± 0.04 | 22.4 ± 1.3 | 17% | 
2 | CC(=O)OCC[N+](C)(C)C [ACh, acetylcholine] |  |  |  |  |  | ~5 µM

— publication PMC9611977 (Toxins, 2022)
